In US11021481B2, “Substituted isoindolin-1-ones and 2,3-dihydro-1h-pyrrolo[3,4-c]pyridin-1-ones as HPK1 antagonists” (Nimbus Saturn, Inc., priority 2019, dated 2021):

What follows are compounds tested against HPK1 (Homo sapiens (Human), UniProt Q92918) (assay: HPK1 biochemical enzyme assay (microfluidic mobility shift assay)). Details: 1.5 nM HPK1, ATP 1 mM final, 30 min preincubation, 60 min at RT, Caliper EZ Reader; read-out: HPK1 1000UMATP caliper IC50.
Summary of the method: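 Mobility shift readout of HPK1 activity after a 60 min RT reaction with 1 mM ATP, 1 μM substrate and 5 mM MgCl2. Enzyme/substrate mix was first exposed to compounds for 30 min, using ten-point curves topping at 3 μM final.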

HPK1, sequence (Q92918 whole entry): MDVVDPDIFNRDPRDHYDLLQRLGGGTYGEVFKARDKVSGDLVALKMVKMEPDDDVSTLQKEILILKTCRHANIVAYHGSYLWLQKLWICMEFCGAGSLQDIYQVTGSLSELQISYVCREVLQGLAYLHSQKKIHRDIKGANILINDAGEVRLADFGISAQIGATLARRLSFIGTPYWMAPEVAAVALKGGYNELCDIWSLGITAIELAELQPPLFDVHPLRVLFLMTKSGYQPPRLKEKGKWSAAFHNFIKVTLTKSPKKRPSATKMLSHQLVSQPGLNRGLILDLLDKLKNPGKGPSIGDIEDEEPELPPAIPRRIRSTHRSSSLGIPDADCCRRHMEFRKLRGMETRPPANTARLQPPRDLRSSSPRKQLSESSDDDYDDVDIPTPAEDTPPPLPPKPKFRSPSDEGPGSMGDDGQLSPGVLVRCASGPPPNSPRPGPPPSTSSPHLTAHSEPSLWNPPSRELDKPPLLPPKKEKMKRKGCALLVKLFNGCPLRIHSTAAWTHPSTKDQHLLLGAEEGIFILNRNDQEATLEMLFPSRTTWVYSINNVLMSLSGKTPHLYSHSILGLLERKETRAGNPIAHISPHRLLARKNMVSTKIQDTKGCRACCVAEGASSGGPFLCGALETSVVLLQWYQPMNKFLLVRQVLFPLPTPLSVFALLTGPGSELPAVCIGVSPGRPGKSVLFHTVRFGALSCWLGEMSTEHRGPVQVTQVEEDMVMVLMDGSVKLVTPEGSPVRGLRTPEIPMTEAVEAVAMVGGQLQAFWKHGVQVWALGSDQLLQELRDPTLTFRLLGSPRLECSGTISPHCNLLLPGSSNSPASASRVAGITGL

Compound | IC50 [nM]
CN1CCc2cc(-c3ccc(Nc4ccc(N5CCC(O)CC5)cn4)c4c3CNC4=O)nn2CC1=O [I-290, 2-(7-((5-(4-hydroxy-piperidin-1-yl)pyridin-2-yl)amino)-1-oxoisoindolin-4-yl)-6-methyl-5,6-dihydro-4H-pyrazolo[1,5-d][1,4]diaze-pin-7(8H)-one] | > 1000
Cc1[nH]c2ncccc2c1-c1ccc(Nc2ccc(N3CCN(C)CC3)cn2)c2c1CNC2=O [I-27, 7-[[5-(4-methylpiperazin-1-yl)-2-pyridyl]amino]-4-(2-methyl-1H-pyrrolo[2,3-b]pyridin-3-yl)-isoindolin-1-one] | 100 to 1000
Cc1cnn2c(-c3ccc(Nc4ccc(N5CCC(O)CC5)cn4)c4c3CNC4=O)ccnc12 [I-165, 7-[[5-(4-hydroxy-1-piperidxl)-2-pyridyl]amino]-4-(3-methylpyra-zolo[1,5-a]pyrimidin-7-yl)isoindolin-1-one] | > 1000
CCNC(=O)c1ccn2c(-c3ccc(Nc4ccc(N5CCOCC5)cn4)c4c3CNC4=O)cnc2c1 [I-207, N-ethyl-3-[7-[(5-morpholino-2-pyridyl)-amino]-1-oxo-isoindolin-4-yl]imidazo[1,2-a]pyridine-7-carboxamide] | 100 to 1000
Cc1nc2ccccn2c1-c1ccc(Nc2ccc(N3CCN(C)CC3)cn2)c2c1CNC2=O [I-50, 4-(2-methylimidazo [1,2-a]pyridin-3-yl-)-7-[[5-(4-methylpiperazin-1-yl)-2-pyridyl]amino] isoindolin-1-1-one] | 100 to 1000
(R)-7-((5-(4-hydroxypiperidin-1-yl)pyridin-2-yl)amino)-3-methyl-4-(1-methyl-1H-pyrrolo[2,3-b]pyridin-4-yl)isoindolin-1-one [I-287] | < 100
C[C@H](O)[C@@H]1CN(c2ccc(Nc3ccc(-c4cnc5cc(F)ccn45)c4c3C(=O)NC4)nc2)CCO1 (single isomer, unassigned) [I-620] | < 100
CN1CCN(c2ccc(Nc3ccc(-c4ccnc5c4cnn5C)c4c3C(=O)NC4)nc2)CC1 [I-61, 7-[[5-(4-methylpiperazn-1-yl)-2-pyridyl]amino]-4-(1-methylpyrazolo [3,4-b]pyridin-4-yl)isoindolin-1-one] | 100 to 1000
CN1CCN(c2ccc(Nc3ccc(-c4ccnc5[nH]ccc45)c4c3C(=O)NC4)nc2)CC1 [I-31, 7-[[5-(4-methylpiperazin-1-yl)-2-pyridyl]amino]-4-(1H-pyrrolo[2,3-b]pyridin-4-yl)-isoindolin-1-one] | < 100
O=C1NCc2c(-c3cnc4cc(C5CC5)ccn34)ccc(Nc3ccc(N4CCC(O)CC4)cn3)c21 [I-181, 4-(7-cyclopropyl-imidazo[1,2-a]pyridin-3-yl)-7-[[5-(4-hydroxy-1-piperidyl)-2-pyridyl]amino] isoindolin-1-one] | < 100
Cc1ccn2c(-c3ccc(Nc4ccc(N5CC[C@H](F)[C@@H](O)C5)cn4)c4c3CNC4=O)cnc2c1F [I-584, 7-((5-((3S.4S)-4-fluoro-3-hydroxypiperidin-1-yl)pyridin-2-yl)amino)-4-(8-fluoro-7-methylimidazo [1,2-a]pyridin-3-yl)isoindolin-1-one] | < 100
CC(C)(O)[C@@H]1CN(c2ccc(Nc3ccc(-c4cnc5cnccn45)c4c3C(=O)NC4)nc2)CCO1 [I-457, 7-[[5-[(2S)-2-(1-hydroxy-1-methyl-ethyl)morpholin-4-yl]-2-pyridyl]amino] 4-imidazo[1,2-a]pyrazin-3-yl-isoindolin-1-one] | < 100
Cc1nccn2c(-c3ccc(Nc4ccc(N5CCC(O)CC5)cn4)c4c3CNC4=O)cnc12 [I-158, 7-[[5-(4-hydroxy-1-piperidyl)-2-pyridyl]amino]-4-(8-methylimidazo [1,2-a]pyrazin-3-yl)isoindolin-1-one] | < 100
CN1CCN(c2ccc(Nc3cnc(-c4ccnc5[nH]ccc45)c4c3C(=O)NC4)nc2)CC1 [I-20, 7-[[5-(4-methylpiperazin-1-yl)-2-pyridyl]amino]-4-(1H-pyrrolo[2,3-b]pyridin-4-yl)-2,3-dihydropyrrolo [3,4-c]pyridin-1-one] | < 100
COC[C@]1(O)CCCN(c2ccc(Nc3ccc(-c4cnc5cc(F)ccn45)c4c3C(=O)NC4)nc2)C1 [I-393, (S)-4-(7-fluoroimidazo [1,2-a]pyridin-3-yl)-7-((5-(3-hydroxy-3-(methoxymeth-yl)piperidin-1-yl)pyridin-2-yl)amino)isoin-dolin-1-one] | < 100
Cn1ccc2c(-c3ncc(Nc4cccc(N5C[C@@H](N)CC5=O)n4)c4c3CNC4=O)ccnc21 [I-692, (S)-7-((6-(4-amino-2-oxopyrrolidin-1-yl)pyridin-2-yl)amino)-4-(1-methyl-1H-pyrrolo[2,3-b]pyridin-4-yl)-2,3-dihydro-1H-pyrrolo[3,4-c]pyridin-1-one] | < 100
CN1CCN(c2ccc(Nc3cnc(-c4cnc5n4CCC5)c4c3C(=O)NC4)nc2)CC1 [I-268, 4-(6,7-dihydro-5H-pyrrolo[1,2-a]imidazol-3-yl)-7-((5-(4-methylpiperazin-1-yl)pyridin-2-yl)amino)-2.3-dihydro-1H-pyrrolo[3,4-c]pyridin-1-one] | 100 to 1000
O=C1NCc2c(-c3cnc4cc(F)ccn34)ccc(Nc3ccc(C4CCOC4)c(N4CCNCC4)n3)c21 (stereo in doubt) [I-772, (S)-4-(7-fluoroimidazo [1,2-a]pyridin-3-yl)-7-((6-(piperazin-1-yl)-5-(tetrahydrofuran-3-yl)pyridin-2-yl)amino)isoin-dolin-1-one] | < 100
O=C1NCc2c(-c3cnc4cc(F)ccn34)ccc(Nc3cnn(C4CCOCC4)c3)c21 [I-379, 4-(7-fluoroimidazo [1,2-a]pyridin-3-yl)-7-((1-(tetrahydro-2H-pyran-4-yl)-1H-pyrazol-4-yl)amino)isoin-dolin-1-one] | 100 to 1000
CN(C)Cc1nc(Nc2cnc(-c3cccc4c3ccn4C)c3c2C(=O)NC3)ccc1[C@H]1CCOC1 [I-547, (R)-7-((6-((dimethylamino)-methyl)-5-(tetrahydrofuran-3-yl)pyridin-2-yl)amino)-4-(1-methyl-1H-indol-4-yl)-2,3-dihydro-1H-pyrrolo[3,4-c]pyridin-1-one] | < 100
CN(C)Cc1nc(Nc2ccc(-c3cnc4cc(F)ccn34)c3c2C(=O)NC3)ccc1N1CCOC[C@@H](O)C1 (single isomer, unassigned) [I-820] | < 100
Cn1ccc2c(-c3ccc(Nc4ccc(N5CCC(O)CC5)cn4)c4c3CNC4=O)cnc-2c1 [I-362, 7-((5-(4-hydroxy-piperidin-1-yl)pyridin-2-yl)amino)-4-(6-methyl-6H-pyrrolo[2,3-c]pyridin-3-yl)isoindolin-1-one] | < 100

Other lines, results leading:

IC50 [nM] | Compound
< 100 | COC[C@@H]1CN(c2ccc(Nc3ccc(-c4cnc5cc(F)ccn45)c4c3C(=O)NC4)nc2)CCO1 [I-442, (S)-4-(7-fluoroimidazo [1,2-a]pyridin-3-yl)-7-((5-(2-(methoxymeth-yl)morpholino)pyridin-2-yl)amino)isoin-dolin-1-one]
< 100 | Cc1nc(Nc2cnc(-c3ccnc4c3ccn4C)c3c2C(=O)NC3)ccc1N1CCN(C)CC1 [I-589, 4-(1-methyl-1H-pyrrolo[2,3-b]pyridin-4-yl)-7-((6-methyl-5-(4-methylpiperazin-1-yl)pyridin-2-yl)amino)-2.3-dihydro-1H-pyrrolo[3,4-c]pyridin-1-one]
< 100 | O=C1NCc2c(-c3cnc4cc(F)ccn34)ccc(Nc3ccc(N4CCC(C(=O)O)CC4)cn3)c21 [I-203, l-[6-[[7-(7-fluoroimidazo [1,2-a]pyridin-3-yl)-3-oxo-isoindolin-4-yl]amino]-3-pyridyl]piper-idine-4-carboxylic acid]
< 100 | O=C1NCc2c(-c3cnc4cc(F)ccn34)ccc(Nc3ccc([C@@H]4CCOC4)c(CNCC(F)(F)F)n3)c21 [I-751, (S)-4-(7-fluoroimidazo [1,2-a]pyridin-3-yl)-7-((5-(tetrahydrofuran-3-yl)-6-(((2,2,2-trifluoroethyl)amino)methyl)pyridin-2-yl)amino)isoin-dolin-1-one]
< 100 | CN(C)Cc1cccc(Nc2ccc(-c3cnc4cc(F)ccn34)c3c2C(=O)NC3)n1 [I-699, 7-((6-((dimethylamino)methyl)pyri-din-2-yl)amino)-4-(7-fluoroimidazo [1,2-a]pyridin-3-yl)isoindolin-1-one]
< 100 | CN(C)Cc1nc(Nc2ccc(-c3cnc4cc(F)ccn34)c3c2C(=O)NC3)ccc1C1(F)CCOCC1 [I-834, 7-((6-((dimethylamino)-methyl)-5-(4-fluorotetrahy-dro-2H-pyran-4-yl)pyridin-2-yl)amino)-4-(7-fluoroimidazo [1,2-a]pyridin-3-yl)isoindolin-1-one]
< 100 | CN1CCN(c2ccc(Nc3cnc(-c4c(F)cnc5c4ccn5C)c4c3C(=O)NC4)nc2)CC1 [I-128]
< 100 | CN(C)Cc1nc(Nc2ccc(-c3cnc4cc(F)ccn34)c3c2C(=O)NC3)ccc1O[C@@H]1CCOC1 [I-533]
< 100 | Cn1ccc2c(-c3ccc(Nc4ccc(N5CCC[C@H](N)C5)cn4)c4c3CNC4=O)ccnc21 [I-94, 7-[[5-[(3S)-3-amino-1-piperipyl]-2-pyridyl]amino]-4-(l-methylpyrrolo [2,3-b]pyridin-4-yl)isoindolin-1-one]
< 100 | C[C@H](c1ccc(Nc2ccc(-c3cnc4cc(F)ccn34)c3c2C(=O)NC3)nc1)N1CCO[C@@H](C)C1 [I-523, 4-(7-fluoroimidazo [1,2-a]pyridin-3-yl)-7-((5-((R)-1-((S)-2-methylmorpho-lino)ethyl)pyr-idin-2-yl)amino) isoin-dolin-1-one]
< 100 | O=C1NCc2c(-c3cnc4c(F)cccn34)ncc(Nc3ccc(N4CC[C@H](F)[C@H](O)C4)cn3)c21 [I-658, 7-((5-((3R,4S]-4-fluoro-3-hydroxy-piperidin-1-yl)pyridin-2-yl)amino)-4-(8-fluoroimidazo [1,2-a]pyridin-3-yl)-2,3-dihydro-1H-pyrrolo[3,4-c]pyridin-1-one]
< 100 | O=C1NCc2c(-c3cnc4cccnn34)ccc(Nc3ccc(N4CCC(O)CC4)cn3)c21 [I-162, 7-[[5-(4-hydroxy-1-piperidyl)-2-pyridyl]amino]-4-imidazo[1,2-b]pyridazin-3-yl-isoindolin-1-one]
